Experimental data reported in ChEMBL document CHEMBL3046111, “Synthesis and insecticidal activity of 1,2,4-oxadiazole and 1,2,4-thiadiazole derivatives” (2011).

Tests used:
Aphis craccivora = test: Insecticidal activity against Aphis craccivora (cowpea aphid) apterous adults reared on broad bean seedlings followed by compound spraying at 200 ppm assessed as insect mortality measured after 4 days; type: functional; conditions: 96 h
Nilaparvata lugens [1] = test: Insecticidal activity against imidacloprid-sensitive Nilaparvata lugens (brown planthopper) fourth-instar larvae reared on compound pre-treated rice seedlings assessed as insect mortality at 200 ppm measured after 7 days; type: functional
Nephotettix cincticeps [2] = test: Insecticidal activity against Nephotettix cincticeps (green rice leafhopper) fourth instar larvae reared on compound pre-treated rice seedlings assessed as insect mortality at 10 ppm measured after 7 days; type: functional
Nephotettix cincticeps [3] = test: Insecticidal activity against Nephotettix cincticeps (green rice leafhopper) fourth instar larvae reared on compound pre-treated rice seedlings assessed as insect mortality at 100 ppm measured after 7 days; type: functional
Nilaparvata lugens [4] = test: Insecticidal activity against imidacloprid-sensitive Nilaparvata lugens (brown planthopper) fourth-instar larvae reared on compound pre-treated rice seedlings assessed as insect mortality at 10 ppm measured after 7 days; type: functional
Nilaparvata lugens [5] = test: Insecticidal activity against imidacloprid-sensitive Nilaparvata lugens (brown planthopper) fourth-instar larvae reared on compound pre-treated rice seedlings assessed as insect mortality at 100 ppm measured after 7 days; type: functional
Nilaparvata lugens [6] = test: Insecticidal activity against imidacloprid-sensitive Nilaparvata lugens (brown planthopper) fourth-instar larvae reared on compound pre-treated rice seedlings assessed as insect mortality at 1 ppm measured after 7 days; type: functional
[7] = target: T1, Muscarinic acetylcholine receptor DM1 (Drosophila melanogaster) (UniProt P16395); test: Inhibition of [3H]NMS from mAChR in Musca domestica (house fly) nerve-cord membranes at […] incubated at 21 degC for 60 min
T1 sequence (whole entry): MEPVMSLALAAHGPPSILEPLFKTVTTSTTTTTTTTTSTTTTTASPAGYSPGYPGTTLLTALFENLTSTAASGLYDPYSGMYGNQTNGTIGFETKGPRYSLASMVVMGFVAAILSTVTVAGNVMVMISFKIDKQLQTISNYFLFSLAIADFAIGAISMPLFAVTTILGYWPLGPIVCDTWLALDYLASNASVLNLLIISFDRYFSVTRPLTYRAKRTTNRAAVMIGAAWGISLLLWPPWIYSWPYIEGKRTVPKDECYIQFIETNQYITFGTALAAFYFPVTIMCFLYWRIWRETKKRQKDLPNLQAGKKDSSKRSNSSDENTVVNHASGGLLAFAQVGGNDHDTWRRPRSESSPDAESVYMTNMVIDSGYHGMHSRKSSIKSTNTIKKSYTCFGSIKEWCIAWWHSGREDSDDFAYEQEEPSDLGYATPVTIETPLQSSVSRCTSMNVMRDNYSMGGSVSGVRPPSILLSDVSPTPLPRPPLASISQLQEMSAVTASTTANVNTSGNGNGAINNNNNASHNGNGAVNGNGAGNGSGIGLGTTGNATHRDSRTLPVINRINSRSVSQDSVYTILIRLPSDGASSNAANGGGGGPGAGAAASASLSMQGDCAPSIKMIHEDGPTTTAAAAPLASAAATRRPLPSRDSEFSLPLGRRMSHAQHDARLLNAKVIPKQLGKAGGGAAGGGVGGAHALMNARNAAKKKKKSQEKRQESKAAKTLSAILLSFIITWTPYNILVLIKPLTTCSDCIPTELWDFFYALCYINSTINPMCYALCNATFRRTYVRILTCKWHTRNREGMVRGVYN

[8] = target: T2, Nicotinic acetylcholine receptor alpha 5 subunit (Musca domestica) (UniProt A9XFY4); test: Inhibition of [3H]EPI from nicotinic acetylcholine receptor in Musca domestica (house fly) nerve-cord membranes at […] incubated at 21 degC for 60 min
T2 sequence (whole entry): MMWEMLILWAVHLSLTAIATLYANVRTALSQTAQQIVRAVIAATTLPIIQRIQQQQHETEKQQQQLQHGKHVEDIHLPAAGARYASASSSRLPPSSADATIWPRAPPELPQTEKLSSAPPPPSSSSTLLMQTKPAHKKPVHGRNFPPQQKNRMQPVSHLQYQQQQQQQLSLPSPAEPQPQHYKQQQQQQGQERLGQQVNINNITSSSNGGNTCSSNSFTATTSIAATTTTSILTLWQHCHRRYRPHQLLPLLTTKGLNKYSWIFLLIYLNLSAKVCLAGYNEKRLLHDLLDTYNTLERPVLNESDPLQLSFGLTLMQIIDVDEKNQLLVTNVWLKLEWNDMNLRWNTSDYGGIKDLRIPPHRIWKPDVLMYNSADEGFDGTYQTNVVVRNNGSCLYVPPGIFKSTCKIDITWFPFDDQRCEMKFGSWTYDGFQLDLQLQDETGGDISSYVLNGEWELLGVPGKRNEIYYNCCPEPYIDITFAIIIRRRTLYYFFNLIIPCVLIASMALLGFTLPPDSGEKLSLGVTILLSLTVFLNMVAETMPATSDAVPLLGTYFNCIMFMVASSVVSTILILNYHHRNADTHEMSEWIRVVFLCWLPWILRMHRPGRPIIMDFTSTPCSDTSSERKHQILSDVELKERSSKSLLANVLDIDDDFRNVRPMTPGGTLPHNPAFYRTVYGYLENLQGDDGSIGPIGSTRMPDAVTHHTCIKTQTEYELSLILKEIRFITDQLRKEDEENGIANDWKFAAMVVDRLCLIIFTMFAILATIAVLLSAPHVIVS

Nilaparvata lugens [9] = test: Insecticidal activity against imidacloprid-resistant Nilaparvata lugens (brown planthopper) fourth-instar larvae reared on compound pre-treated rice seedlings assessed as insect mortality at 10 ppm measured after 7 days; type: functional
Nilaparvata lugens [10] = test: Insecticidal activity against imidacloprid-resistant Nilaparvata lugens (brown planthopper) fourth-instar larvae reared on compound pre-treated rice seedlings assessed as insect mortality at 100 ppm measured after 7 days; type: functional
Nilaparvata lugens [11] = test: Insecticidal activity against imidacloprid-resistant Nilaparvata lugens (brown plant hopper) fourth-instar larvae reared on compound pre-treated rice seedlings assessed as insect mortality at 1 ppm measured after 7 days; type: functional
Nilaparvata lugens [12] = test: Insecticidal activity against imidacloprid-sensitive Nilaparvata lugens (brown planthopper) fourth-instar larvae reared on compound pre-treated rice seedlings assessed as insect mortality at 0.1 ppm measured after 7 days; type: functional
Nilaparvata lugens [13] = test: Insecticidal activity against imidacloprid-resistant Nilaparvata lugens (brown planthopper) fourth-instar larvae reared on compound pre-treated rice seedlings assessed as insect mortality at 0.1 ppm measured after 7 days; type: functional

Compound	mortality at 200 ppm (Aphis craccivora) [%]	mortality at 200 ppm (Nilaparvata lugens [1]) [%]	mortality at 10 ppm (Nephotettix cincticeps [2]) [%]	mortality at 100 ppm (Nephotettix cincticeps [3]) [%]	mortality at 10 ppm (Nilaparvata lugens [4]) [%]	mortality at 100 ppm (Nilaparvata lugens [5]) [%]	other results
C=CC[n+]1cccc(-c2nc(C)ns2)c1	10	40					
CCN1CCC=C(c2nc(C)ns2)C1	40	100	10	50	40	100	
Cc1nsc(C2=CCCN(C)C2)n1	40	100	0	30	80	100	mortality at 1 ppm (Nilaparvata lugens [6]): 30%; inhibition [7]: 62%; inhibition [8]: 6%; mortality at 10 ppm (Nilaparvata lugens [9]): 90%; mortality at 100 ppm (Nilaparvata lugens [10]): 100%; mortality at 1 ppm (Nilaparvata lugens [11]): 50%
Cc1nsc(-c2cccnc2)n1	100	100	30	80	80	100	mortality at 1 ppm (Nilaparvata lugens [6]): 60%; inhibition [7]: 12%; inhibition [8]: 4%; mortality at 10 ppm (Nilaparvata lugens [9]): 90%; mortality at 100 ppm (Nilaparvata lugens [10]): 100%; mortality at 1 ppm (Nilaparvata lugens [11]): 50%
C#CC[n+]1cccc(-c2nc(C)ns2)c1	70	90	10	50	40	80	
Cc1nsc(-c2ccc[n+](C)c2)n1	60	40					
CCCCN1CCC=C(c2nc(C)ns2)C1	30	100	10	20	30	100	
Cc1nsc(C2=CCCN(CC#N)C2)n1	50	100	0	50	10	100	
CCC(C)[n+]1cccc(-c2nc(C)ns2)c1 (stereo not drawn)	20	100	10	50	90	90	
Cc1nsc(-c2ccc[n+](CC#N)c2)n1	70	90	10	40	50	80	
Cc1noc(-c2ccncc2)n1	0	10					
Cc1nsc(C2=CCCN(CC(C)C)C2)n1	50	100	0	10	70	100	
Cc1noc(-c2cccnc2)n1	30	90		100		60	
c1cncc(-c2ncns2)c1	100	100	40	70	60	100	
Cc1nsc(C2=CCCN(Cc3ccccc3)C2)n1	10	100	0	30	10	100	
Cc1nsc(-c2ccccn2)n1	30	40					
C=CCN1CCC=C(c2ncns2)C1	40	100	10	60	60	100	

Compound	mortality at 200 ppm (Aphis craccivora) [%]	mortality at 200 ppm (Nilaparvata lugens [1]) [%]	mortality at 10 ppm (Nephotettix cincticeps [2]) [%]	mortality at 100 ppm (Nephotettix cincticeps [3]) [%]	mortality at 10 ppm (Nilaparvata lugens [4]) [%]	mortality at 100 ppm (Nilaparvata lugens [5]) [%]	other results
Cc1nsc(C2CCCN(C)C2)n1 (stereo not drawn)	0	30					
CCCCCCCCCCN1CCC=C(c2nc(C)ns2)C1	60	30					
CCCC[n+]1cccc(-c2nc(C)ns2)c1	10	50					
CCCCCCCCCC[n+]1cccc(-c2nc(C)ns2)c1	60	0					
Cc1nsc(-c2ccncc2)n1	40	100	20	40	20	100	
Cc1noc(-c2ccc[n+](C)c2)n1	10	10					
Cc1nsc(-c2ccc[n+](Cc3ccccc3)c2)n1	10	20					
C#CCN1CCC=C(c2ncns2)C1	30	100	20	60	30	100	
O=[N+]([O-])/N=C1\NCCN1Cc1ccc(Cl)nc1 [IMIDACLOPRID]							mortality at 0.1 ppm (Nilaparvata lugens [12]): 90%; mortality at 1 ppm (Nilaparvata lugens [6]): 100%; mortality at 0.1 ppm (Nilaparvata lugens [13]): 50%; mortality at 10 ppm (Nilaparvata lugens [9]): 100%; mortality at 1 ppm (Nilaparvata lugens [11]): 80%
C[n+]1cccc(-c2ncno2)c1	20	60					
CC[n+]1cccc(-c2nc(C)ns2)c1	20	20					
CN1CCC=C(c2ncns2)C1	30	60					
Cc1noc(C2=CCCN(C)C2)n1	0	100	50	90	70	90	
Cc1noc(-c2ccccn2)n1	0	10					
C[n+]1cccc(-c2ncns2)c1	30	80					
c1cncc(-c2ncno2)c1	20	50					
